According to patent US7629334B1, “Mesoprogrestins (progesterone receptor modulations) as a component of compositions for hormone replacement therapy (HRT)” (Bayer Schering Pharma Aktiengesellschaft, priority 1999, dated 2009):

Legend:
[1] = target: T1, progesterone receptor (PR) (Oryctolagus cuniculus, UniProt P06186); assay: McPhail test, PR agonistic properties in estradiol-primed juvenile rabbits; type: in vivo, rabbit; conditions: for maximum effect, McPhail score: 4 days s.c. treatment, absence of progesterone, 0 = no transformation, 4 = complete transformation
T1 construct: from tissue; host or cells: endometrium of estradiol-primed juvenile rabbits, in vivo
T1 sequence (P06186 1-930): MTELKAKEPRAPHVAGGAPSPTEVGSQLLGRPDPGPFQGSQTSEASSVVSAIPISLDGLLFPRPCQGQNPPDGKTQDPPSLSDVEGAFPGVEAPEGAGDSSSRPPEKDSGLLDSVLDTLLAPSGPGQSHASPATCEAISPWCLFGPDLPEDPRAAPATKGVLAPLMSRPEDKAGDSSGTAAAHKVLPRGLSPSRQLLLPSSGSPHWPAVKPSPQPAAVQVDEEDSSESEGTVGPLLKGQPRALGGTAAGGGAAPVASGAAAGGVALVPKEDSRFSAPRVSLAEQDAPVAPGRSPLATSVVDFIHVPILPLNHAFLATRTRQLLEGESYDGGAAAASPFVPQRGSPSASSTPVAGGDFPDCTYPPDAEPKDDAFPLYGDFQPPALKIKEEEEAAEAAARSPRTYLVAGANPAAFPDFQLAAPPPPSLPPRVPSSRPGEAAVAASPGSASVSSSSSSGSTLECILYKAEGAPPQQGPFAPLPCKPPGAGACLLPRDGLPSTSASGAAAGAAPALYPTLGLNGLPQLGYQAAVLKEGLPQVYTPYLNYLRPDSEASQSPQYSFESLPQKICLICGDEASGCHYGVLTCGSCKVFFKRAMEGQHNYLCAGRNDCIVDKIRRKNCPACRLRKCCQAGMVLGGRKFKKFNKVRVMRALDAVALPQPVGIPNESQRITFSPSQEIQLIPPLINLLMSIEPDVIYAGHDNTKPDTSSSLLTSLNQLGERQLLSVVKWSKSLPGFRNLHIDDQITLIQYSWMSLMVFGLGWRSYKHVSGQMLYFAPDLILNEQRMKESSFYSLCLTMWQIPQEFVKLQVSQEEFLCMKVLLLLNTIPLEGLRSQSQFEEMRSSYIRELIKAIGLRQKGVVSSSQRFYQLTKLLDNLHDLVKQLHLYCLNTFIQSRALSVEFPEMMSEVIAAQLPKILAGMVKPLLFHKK
Protocol: In the classical bioassay, the McPhail test, assessing progestagenic and antiprogestagenic effects in rabbits (Selye H., Textbook of Endocrinology, 1947, pp. 345-346), progesterone produces a maximum McPhail score of 4 (by definition). […] The PR antagonistic and agonistic properties of mesoprogestins were assessed in estrogen-primed rabbits in the McPhail test according to Selye (Textbook of Endocrinology, 1947, pp. 345-346).

pregnant guinea pigs = assay: Abortifacient (labor inducing) activity in pregnant guinea pigs; type: in vivo, guinea pig; conditions: for abortifacient activity ED50, guinea pig: treatment day 43-44 of pregnancy, autopsy day 50; for maximal abortion rate: up to 100 mg/kg/day
Protocol: In the guinea pig model which allows a good prediction of the effects in humans with respect to the abortifacient activity (Elger W, Beier S., Chwalisz K, Fähnrich M, Hasan S H, Henderson D, Neef G, Rohde R (1986): Studies on the mechanism of action of progesterone antagonists. J Steroid Biochem 25: 835-845) the mesoprogestins J 867, J 912, J 956, J 1042 lead up to 100 mg/kg/day to a maximal abortion rate of 20%.
(§1) The guinea pig is considered as relevant model of human gestation and parturition (Elger W, Fähnrich M, Beier S, Quing S S, Chwalisz K (1987). Endometrial and myometrial effects of progesterone antagonists in pregnant guinea pigs. Am J Obstet Gynecol 157: 1065-1074; Elger W, Neef G, Beier S, Fähnrich M, Gründel M, Heermann J, Malmendier A, Laurent D, Puri C P, Singh M M, Hasan S H, Becker H (1992). Evaluation of antifertility activities of antigestagens in animal model. In: Puri C P and Van Look P F A (eds), Current Concepts in Fertility Regulation and Reproduction. Wiley Eastern Limited, New Delhi, pp. 303-328; Elger W, Faehnrich M, Beier S, Qing S S, Chwalisz K (1986). Mechanism of action of progesterone antagonists in pregnant guinea pigs. Contraception 6: 47-62; Elger W, Chwalisz K, Faehnrich M, Hasan S H, Laurent D, Beier S, Ottow E, Neef G, Garfield R E (1990). Studies on labor-conditioning and labor-inducing effects of antiprogesterones in animal model. In: Garfield R E (eds), Norwell, pp. 153-175.) The mechanism of abortion of antiprogestins in this species is the initiation of labor and finally the expulsion of the conceptus. Abortifacient effects in the rat during very early pregnancy reflect inhibitory effects on nidation rather than initiation of uterine contractions. Studies in the rat model lead to “overestimation” of the potential of antiprogestins to terminate pregnancy in humans. Conversely, in the guinea pig model, irrespective of the antiprogestin doses, there were high rates of ongoing pregnancies similar to the situation in humans (Elger et al., Current Concepts in Fertility Regulation and Reproduction cited above). Furthermore, in both humans and guinea pigs, there is a strong synergism between antiprogestins and prostaglandins with respect the induction of labor (see the articles cited above and Elger W, Beier S (1983). Prostaglandine und Antigestagene für den Schwangerschaftsabbruch (Prostaglandins and antigestagens for pregnancy termination). German Patent DE 3337450 12; Van Look P, Bygdeman M (1989). Antiprogestational steroids: a new dimension in human fertility regulation. Oxford reviews of reproductive medicine 11: 2-60).
Pregnant guinea pigs were treated on days 43 and 44 of pregnancy and observed until day 50 of gestation. For the effects of various treatments see table 1 and FIG. 2. It is typical for this model that expulsions occur with a delay of several days after treatment. It can be seen that Mesoprogestins have a much reduced abortifacient activity compared to RU486. […] The differences with respect to abortifacient activity seem qualitative ones. It is not possible to overcome the low abortifacient activity of a Mesoprogestin by the use of a higher dose.

pregnant rats = assay: Abortifacient activity in pregnant rats; type: in vivo, rat; conditions: treatment days 5-7 of pregnancy, autopsy day 9; * SAS, probit procedure
Source text: as §1

[2] = dose range 0.003-100 mg/rabbit s.c.

Compound	progestagenic effect compared with maximum effect of progesterone [1, 2]	abortifacient activity ED50, guinea pig (pregnant guinea pigs)	maximal abortion rate (pregnant guinea pigs) [%]	abortifacient activity ED50, Rat (pregnant rats)	maximum effect, McPhail score [1]	shape of dose response [1, 2]	dose inducing endometrial transformation ([1]; 4 days s.c.) [mg]
COC[C@]1(OC)CC[C@H]2[C@@H]3CCC4=CC(=O)CCC4=C3[C@@H](c3ccc(/C=N/O)cc3)C[C@@]21C [Compound J867, 4-[17βMethoxy-17α-(methoxymethyl)-3-oxoestra-4,9-dien-11β-yl]benzaldehyd-(1E)-oxim]	Neither mesoprogestin tested (J 1042, J867, J956) reached the maximum effect of progesterone	>100 mg/animal/day, s.c.	20	0.65* mg/animal/day, s.c.	–	–	–
COCC1(O)CCC2C3CCC4=CC(=O)CCC4=C3C(c3ccc(C=NO)cc3)CC21C (stereo not drawn) [Compound J912, 4-[17β-Hydroxy-17α-(methoxymethyl)-3-oxoestra-4,9-dien-11β-yl]benzaldehyd-(1E)-oxim]	–	>100 mg/animal/day, s.c.	20	0.36 mg/animal/day, s.c.	–	–	–
CCNC(=O)O/N=C/c1ccc([C@H]2C[C@@]3(C)[C@@H](CC[C@]3(COC)OC)[C@@H]3CCC4=CC(=O)CCC4=C32)cc1 [Compound J956, 4-[17β-Methoxy-17α-(methoxymethyl)-3-oxoestra-4,9-dien-11β-yl]benzaldehyd-(1E)-[O-(ethylamino)carbonyl]oxim]	Neither mesoprogestin tested (J 1042, J867, J956) reached the maximum effect of progesterone	20 mg/animal/day, s.c.	20	0.64* mg/animal/day, s.c.	1.5	biphasic response	–
CCSC(=O)O/N=C/c1ccc([C@H]2C[C@@]3(C)[C@@H](CC[C@]3(COC)OC)[C@@H]3CCC4=CC(=O)CCC4=C32)cc1 [Compound J1042, 4-[17β-Methoxy-17α-(methoxymethyl)-3-oxoestra-4,9-dien-11β-yl]benzaldehyd-(1E)-[O-(ethylthio)carbonyl]oxim]	Neither mesoprogestin tested (J 1042, J867, J956) reached the maximum effect of progesterone	>>100 mg/animal/day, s.c.	20	>10 mg/animal/day, s.c.	–	–	–
CN(C)c1ccc([C@H]2C[C@]3(C)[C@@H](CC[C@]3(O)CCCO)[C@@H]3CCC4=CC(=O)CCC4=C32)cc1 [Onapristone, onapristone, reference compound]	–	ca 3 mg/animal/day, s.c.	–	1.71* mg/animal/day, s.c.	–	–	–
CC(=O)[C@H]1CC[C@H]2[C@@H]3CCC4=CC(=O)CC[C@]4(C)[C@H]3CC[C@]12C [Progesterone, progesterone]	–	–	–	–	~4	–	≥ 0.1
CC#C[C@]1(O)CC[C@H]2[C@@H]3CCC4=CC(=O)CCC4=C3[C@@H](c3ccc(N(C)C)cc3)C[C@@]21C [RU 486, reference compound]	–	3.8 mg/animal/day, s.c.	–	0.98* mg/animal/day, s.c.	–	–	–
